Results from ChEMBL document CHEMBL4304831, “Chalcone-Thiazole Hybrids: Rational Design, Synthesis, and Lead Identification against 5-Lipoxygenase” (ACS Med Chem Lett, 2019).

T1: Polyunsaturated fatty acid 5-lipoxygenase (Homo sapiens) (UniProt P09917)
T1 sequence (whole entry): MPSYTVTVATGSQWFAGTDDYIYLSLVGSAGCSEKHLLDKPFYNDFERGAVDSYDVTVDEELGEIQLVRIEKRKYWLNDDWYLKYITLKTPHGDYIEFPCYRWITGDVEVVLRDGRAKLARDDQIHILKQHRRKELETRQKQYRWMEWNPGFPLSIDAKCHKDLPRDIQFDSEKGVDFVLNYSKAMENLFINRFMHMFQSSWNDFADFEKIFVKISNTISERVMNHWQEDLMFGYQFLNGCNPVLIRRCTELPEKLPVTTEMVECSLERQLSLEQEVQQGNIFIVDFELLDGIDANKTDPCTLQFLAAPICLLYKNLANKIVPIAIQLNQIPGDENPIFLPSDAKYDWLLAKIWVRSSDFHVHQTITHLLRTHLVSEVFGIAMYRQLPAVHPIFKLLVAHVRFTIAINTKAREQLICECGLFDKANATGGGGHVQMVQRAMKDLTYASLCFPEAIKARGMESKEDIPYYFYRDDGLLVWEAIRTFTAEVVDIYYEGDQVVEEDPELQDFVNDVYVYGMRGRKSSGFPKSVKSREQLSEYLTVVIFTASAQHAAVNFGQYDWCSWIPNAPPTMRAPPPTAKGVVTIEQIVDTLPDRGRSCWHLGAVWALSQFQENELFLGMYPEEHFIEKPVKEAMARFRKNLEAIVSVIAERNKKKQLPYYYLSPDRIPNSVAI

T2: Polyunsaturated fatty acid 5-lipoxygenase (Homo sapiens, UniProt P09917)
T2 sequence (P09917 whole entry): T1 sequence (whole entry)

B1: Polyunsaturated fatty acid 5-lipoxygenase (Homo sapiens), P09917 (protein)
chain: T1 sequence (whole entry)

Experiments:
[1] = target: T1, Polyunsaturated fatty acid 5-lipoxygenase (Homo sapiens); assay: Inhibition of human recombinant 5-LOX expressed in Escherichia coli BL21 assessed as conversion of arachidonic acid to 5-HPETE at 10 uM using arachidonic acid as substrate in presence of ATP by UV-vis spectrophotometry analysis relative to control
[2] = Antioxidant activity assessed as DPPH radical scavenging activity at 10 uM after 30 mins under dark condition relative to control; type: functional
[3] = target: T2, Polyunsaturated fatty acid 5-lipoxygenase; assay: Inhibition of human recombinant 5-LOX expressed in Escherichia coli BL21 assessed as conversion of arachidonic acid to 5-HPETE using arachidonic acid as substrate in presence of ATP by UV-vis spectrophotometry analysis
[4] = target: T1, Polyunsaturated fatty acid 5-lipoxygenase (Homo sapiens); assay: Inhibition of human recombinant 5-LOX pseudoperoxidase activity expressed in Escherichia coli BL21 assessed as compound redox activity by measuring change in absorption at 10 uM using 13(S)-HpODE as substrate in presence of ATP by UV-vis spectrophotometric method relative to control; set-up: scale not given: the % may be the effect or the level left
[5] = compound: COc1cc(/C=C/C(=O)c2sc(NC(=O)c3ccccc3)nc2C)cc(OC)c1OC; assay: Noncompetitive inhibition of human recombinant 5-LOX expressed in Escherichia coli BL21 assessed as Km for substrate at 5 uM using varying levels arachidonic acid as substrate by Lineweaver-Burk plot analysis (reference value: 1.9 +/- 0.4 uM)
[6] = compound: Cc1nc(NC(=O)c2ccccc2)sc1C(=O)/C=C/c1cc2c(cc1Br)OCO2; assay: (§1) Competitive inhibition of human recombinant 5-LOX expressed in Escherichia coli BL21 assessed as Vmax for substrate at 5 uM using varying levels arachidonic acid as substrate by Lineweaver-Burk plot analysis (reference value: 0.33 to 0.45 +/- 0.01 nmol/min)
[7] = compound: COc1ccc(C(=O)Nc2nc(C)c(C(=O)/C=C/c3ccc(C)cc3)s2)cc1; assay: as §1
[8] = compound: Cc1nc(NC(=O)c2ccccc2)sc1C(=O)/C=C/c1cc2c(cc1Br)OCO2; assay: (§2) Competitive inhibition of human recombinant 5-LOX expressed in Escherichia coli BL21 assessed as increase in Km for substrate at 2 uM using varying levels arachidonic acid as substrate by Lineweaver-Burk plot analysis (reference value: 0.31 to 0.35 +/- 0.08 to 0.10 uM)
[9] = compound: COc1ccc(C(=O)Nc2nc(C)c(C(=O)/C=C/c3ccc(C)cc3)s2)cc1; assay: as §2
[10] = compound: COc1cc(/C=C/C(=O)c2sc(NC(=O)c3ccccc3)nc2C)cc(OC)c1OC; assay: Noncompetitive inhibition of human recombinant 5-LOX expressed in Escherichia coli BL21 assessed as decrease in Vmax for substrate at 5 uM using varying levels arachidonic acid as substrate by Lineweaver-Burk plot analysis (reference value: 0.38 +/- 0.02 nmol/min)
[11] = compound: COc1cc(/C=C/C(=O)c2sc(NC(=O)c3ccccc3)nc2C)cc(OC)c1OC; assay: Noncompetitive inhibition of human recombinant 5-LOX expressed in Escherichia coli BL21 assessed as decrease in Vmax for substrate at 2 uM using varying levels arachidonic acid as substrate by Lineweaver-Burk plot analysis (reference value: 0.38 +/- 0.02 nmol/min)
[12] = compound: Cc1nc(NC(=O)c2ccccc2)sc1C(=O)/C=C/c1cc2c(cc1Br)OCO2; assay: (§3) Competitive inhibition of human recombinant 5-LOX expressed in Escherichia coli BL21 assessed as increase in Km for substrate at 5 uM using varying levels arachidonic acid as substrate by Lineweaver-Burk plot analysis (reference value: 0.31 to 0.35 +/- 0.08 to 0.10 uM)
[13] = compound: COc1ccc(C(=O)Nc2nc(C)c(C(=O)/C=C/c3ccc(C)cc3)s2)cc1; assay: as §3
[14] = compound: Cc1nc(NC(=O)c2ccccc2)sc1C(=O)/C=C/c1cc2c(cc1Br)OCO2; assay: (§4) Competitive inhibition of human recombinant 5-LOX expressed in Escherichia coli BL21 assessed as Vmax for substrate at 2 uM using varying levels arachidonic acid as substrate by Lineweaver-Burk plot analysis (reference value: 0.33 to 0.45 +/- 0.01 nmol/min)
[15] = compound: COc1ccc(C(=O)Nc2nc(C)c(C(=O)/C=C/c3ccc(C)cc3)s2)cc1; assay: as §4
[16] = compound: COc1cc(/C=C/C(=O)c2sc(NC(=O)c3ccccc3)nc2C)cc(OC)c1OC; assay: Noncompetitive inhibition of human recombinant 5-LOX expressed in Escherichia coli BL21 assessed as Km for substrate at 2 uM using varying levels arachidonic acid as substrate by Lineweaver-Burk plot analysis (reference value: 1.9 +/- 0.4 uM)

Row | Molecule | inhibition [1] [%] | Activity [2] [%] | IC50 [3] [nM] | Activity [4] [%] | also measured
1 | Cc1nc(NC(=O)c2ccc(F)cc2)sc1C(=O)/C=C/c1ccc(N(C)C)cc1 | 70.2 | 3.9 |  |  | 
2 | Cc1nc(NC(=O)c2ccccc2)sc1C(=O)/C=C/c1ccc(F)cc1 | 98 | 3 | 140 | -12.5 | 
3 | COc1ccc(C(=O)Nc2nc(C)c(C(=O)/C=C/c3ccc(C)cc3)s2)cc1 | 100 | 5.5 | 80 | 5.6 | 
4 | Cc1nc(NC(=O)c2ccccc2)sc1C(=O)/C=C/c1ccc(Cl)cc1 | 63.7 | 8.8 |  |  | 
5 | COc1ccc(/C=C/C(=O)c2sc(NC(=O)c3ccccc3)nc2C)cc1 | 58.8 | 7.9 |  |  | 
6 | Cc1nc(NC(=O)c2ccccc2)sc1C(=O)/C=C/c1ccc(Br)cc1 | 52.3 | 2.4 |  |  | 
7 | Cc1ccc(/C=C/C(=O)c2sc(NC(=O)c3ccc(F)cc3)nc2C)cc1 | 91.5 | 15 | 540 | -56.3 | 
8 | O=C1O[C@H]([C@@H](O)CO)C(O)=C1O |  | 60.5 |  |  | 
9 | Cc1nc(NC(=O)c2ccccc2)sc1C(=O)/C=C/c1cc2c(cc1Br)OCO2 | 100 | 5.4 | 120 | 1.2 | 
10 | Cc1nc(NC(=O)c2ccccc2)sc1C(=O)/C=C/c1cccs1 | 71.9 | 2.2 |  |  | 
11 | COc1ccc(C(=O)Nc2nc(C)c(C(=O)/C=C/c3ccc(F)cc3)s2)cc1 | 88.2 | 2.1 | 560 | 0.3 | 
12 | CC(c1cc2ccccc2s1)N(O)C(N)=O (centres undefined) |  | 10.3 |  |  | 
13 | Cc1nc(NC(=O)c2ccc(F)cc2)sc1C(=O)/C=C/c1ccco1 | 65.3 | 8.2 |  |  | 
14 | Cc1nc(NC(=O)c2ccccc2)sc1C(=O)/C=C/c1ccco1 | 57.2 | 3.4 |  |  | 
15 | Cc1ccc(/C=C/C(=O)c2sc(NC(=O)c3ccccc3)nc2C)cc1 | 75.1 | 3 |  |  | 
16 | Cc1nc(NC(=O)c2ccccc2)sc1C(=O)/C=C/c1ccc(N(C)C)cc1 | 88.2 | 0 | 640 | -12.2 | 
17 | Cc1nc(NC(=O)c2ccc(F)cc2)sc1C(=O)/C=C/c1cc2c(cc1Br)OCO2 | 50.6 | 5.1 |  |  | 
18 | Cc1nc(NC(=O)c2ccc(F)cc2)sc1C(=O)/C=C/c1cccs1 | 81.7 | 0 |  |  | 
19 | Cc1nc(NC(=O)c2ccc([N+](=O)[O-])cc2)sc1C(=O)/C=C/c1ccc(Cl)cc1 | 48.8 | 2.4 |  |  | 
20 | Cc1nc(NC(=O)c2ccccc2)sc1C(=O)/C=C/c1cccc(Br)c1 | 42.5 | 5.7 |  |  | 
21 | Cc1nc(NC(=O)c2ccccc2)sc1C(=O)/C=C/c1ccccc1 | 73.5 | 2.5 |  |  | 
22 | Cc1nc(NC(=O)c2ccccc2)sc1C(=O)/C=C/c1cccc([N+](=O)[O-])c1 | 98 | 8.7 | 240 | -40.2 | 
23 | COc1ccc(/C=C/C(=O)c2sc(NC(=O)c3ccccc3)nc2C)cc1OC | 70.2 | 6.4 |  |  | 
24 | COc1cc(/C=C/C(=O)c2sc(NC(=O)c3ccccc3)nc2C)cc(OC)c1OC | 100 | 5.7 | 70 | -56.6 | 
25 | B1 |  |  |  |  | Km [5]: 2.1 µM; Vmax [6]: 0.42 nmol/min; Vmax [7]: 0.31 nmol/min; Km [8]: 1.41 µM; Km [9]: 0.43 µM; Vmax [10]: 0.25 nmol/min; Vmax [11]: 0.29 nmol/min; Km [12]: 2.91 µM; Km [13]: 0.53 µM; Vmax [14]: 0.43 nmol/min; Vmax [15]: 0.32 nmol/min; Km [16]: 1.8 µM
